Measured values reported in ChEMBL document CHEMBL1201862, “PubChem BioAssay data set” (2004).
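These data come from cells grown in 96-well plates and exposed to compound for 48 hours at five concentrations. Abbreviation: GI50, concentration required for 50% inhibition of growth.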 Activity calls are given as the source filed them. Rule as the data show it: active = GI50 up to about 1.1 µM and inactive = higher. Where a SMILES comes first, the peptide text is derived from it. [ ]: non-standard residue; d: D form. The star is where a group is joined. ξ: configuration not given here. ξPhe(4-NO2) = NC(Cc1ccc([N+](=O)[O-])cc1)C(=O)O; Boc = CC(C)(C)OC(=O)*

How the values were obtained:
Assay in all cases: NCI anticancer screen, dose series, 48 h
[1] = test system: A549
[2] = test system: ACHN
[3] = test system: BT-549
[4] = test system: DU-145
[5] = test system: HCT-116
[6] = test system: HL-60
[7] = test system: HOP-62
[8] = test system: HOP-92
[9] = test system: Hs-578T
[10] = test system: K562
[11] = test system: MDA-MB-231
[12] = test system: MOLT-4
[13] = test system: NCI-H226
[14] = test system: NCI-H460
[15] = test system: NCI/ADR-RES
[16] = test system: OVCAR-4
[17] = test system: SF-539
[18] = test system: SK-MEL-28
[19] = test system: SN12C
[20] = test system: SNB-75

SMILES | GI50 [1] | GI50 [2] | GI50 [3] | GI50 [4] | GI50 [5] | GI50 [6] | GI50 [7] | GI50 [8] | GI50 [9] | GI50 [10] | GI50 [11] | GI50 [12] | GI50 [13] | GI50 [14] | GI50 [15] | GI50 [16] | GI50 [17] | GI50 [18] | GI50 [19] | GI50 [20]
COc1ccc2c3c1O[C@H](c1ccc(O)cc1)[C@H]3[N+](C)(C)CC2 | > 100 µM (inactive) | > 100 µM (inactive) | > 100 µM (inactive) | > 100 µM (inactive) | > 100 µM (inactive) | 34.3 µM (inactive) | > 100 µM (inactive) | > 100 µM (inactive) | > 100 µM (inactive) | 34.1 µM (inactive) | > 100 µM (inactive) | > 100 µM (inactive) | > 100 µM (inactive) | > 100 µM (inactive) | > 100 µM (inactive) | 5.51 µM (inactive) | > 100 µM (inactive) | > 100 µM (inactive) | > 100 µM (inactive) | > 100 µM (inactive)
NC(Cc1c[nH]c2ccccc12)P(=O)(O)O (centres undefined) | > 100 µM (inactive) | > 100 µM (inactive) | > 100 µM (inactive) | > 100 µM (inactive) | > 100 µM (inactive) | > 100 µM (inactive) | > 100 µM (inactive) | > 10 µM (inactive) | > 100 µM (inactive) | > 100 µM (inactive) | > 100 µM (inactive) | > 100 µM (inactive) | > 100 µM (inactive) | > 100 µM (inactive) | > 100 µM (inactive) | > 100 µM (inactive) | > 100 µM (inactive) | > 100 µM (inactive) | > 100 µM (inactive) | > 100 µM (inactive)
CC1(C)CC(=O)C2=C(C1)NC(=S)C(C#N)C2c1ccccc1 (centres undefined) | > 100 µM (inactive) | > 100 µM (inactive) | > 100 µM (inactive) | > 100 µM (inactive) | > 100 µM (inactive) | > 100 µM (inactive) | > 100 µM (inactive) | > 100 µM (inactive) | > 100 µM (inactive) | 75.9 µM (inactive) | > 100 µM (inactive) |  | > 100 µM (inactive) | > 100 µM (inactive) | > 100 µM (inactive) | > 100 µM (inactive) | > 100 µM (inactive) | > 100 µM (inactive) | > 100 µM (inactive) | > 100 µM (inactive)
N[C@@H]1c2c(Br)sc(Br)c2C(=O)[C@H]1Br | > 100 µM (inactive) | 20.6 µM (inactive) | 19.1 µM (inactive) | > 60.3 µM (inactive) | 17.3 µM (inactive) | 2.42 µM (inactive) | 50.4 µM (inactive) | 17.5 µM (inactive) | 54.6 µM (inactive) | > 28.3 µM (inactive) | 23.6 µM (inactive) | 4.69 µM (inactive) | > 42.3 µM (inactive) | 57.1 µM (inactive) | 22.2 µM (inactive) | 27.2 µM (inactive) | > 63.1 µM (inactive) | 28.5 µM (inactive) | 24.9 µM (inactive) | > 100 µM (inactive)
c1ccc2c(NCCCCCCNc3c4ccccc4nc4ccccc34)c3ccccc3nc2c1 | 0.29 µM (active) | 0.23 µM (active) | 1.5 µM (inactive) | 0.632 µM (active) | 0.0392 µM (active) | 0.25 µM (active) | 0.206 µM (active) | 0.24 µM (active) | 0.682 µM (active) | 0.0649 µM (active) | 0.08 µM (active) | 0.0149 µM (active) | 0.587 µM (active) | 0.0631 µM (active) | 17.9 µM (inactive) | 0.429 µM (active) | 0.108 µM (active) |  | 0.137 µM (active) | 0.713 µM (active)
CCCCOc1ccc(/C=C/C2=[N+](CCO)CCO2)cc1 | 55.3 µM (inactive) | 91.6 µM (inactive) | > 100 µM (inactive) | > 100 µM (inactive) | 39.8 µM (inactive) | 21.7 µM (inactive) | > 100 µM (inactive) | 44.3 µM (inactive) | > 100 µM (inactive) | 24 µM (inactive) | 61.9 µM (inactive) | 53 µM (inactive) | 27.2 µM (inactive) | 68.7 µM (inactive) | 78 µM (inactive) | > 100 µM (inactive) | 21.7 µM (inactive) | > 100 µM (inactive) | 97.3 µM (inactive) | 67.1 µM (inactive)
CC1ON2CCCC2[C@H]1C(=O)N1C2CC3CCC2(CS1(=O)=O)C3(C)C (some centres undefined) | > 100 µM (inactive) | > 100 µM (inactive) | > 100 µM (inactive) | > 100 µM (inactive) | > 100 µM (inactive) | > 100 µM (inactive) | > 100 µM (inactive) | > 100 µM (inactive) | > 100 µM (inactive) | > 100 µM (inactive) | > 100 µM (inactive) | > 100 µM (inactive) | > 100 µM (inactive) | > 100 µM (inactive) | > 100 µM (inactive) | > 100 µM (inactive) | > 100 µM (inactive) | > 100 µM (inactive) | > 100 µM (inactive) | > 100 µM (inactive)
CCN(CC)/C(Cl)=C(Cl)\C(=C1\Nc2ccc(OC)cc21)[N+](=O)[O-] | 58.9 µM (inactive) | 98.2 µM (inactive) | 37.1 µM (inactive) | 37.8 µM (inactive) | 44.6 µM (inactive) | 32.3 µM (inactive) | 78.7 µM (inactive) | > 100 µM (inactive) | 78.7 µM (inactive) | 31.7 µM (inactive) | 45.5 µM (inactive) | 23.1 µM (inactive) | 18.9 µM (inactive) | 31.1 µM (inactive) | 70.6 µM (inactive) | 30.8 µM (inactive) |  | 55.7 µM (inactive) | > 100 µM (inactive) | 15.3 µM (inactive)
O=C(CC(=O)N(C(=O)c1ccccc1)c1ccc(Cl)cc1)N/N=C\c1cc(/N=N/c2ccccc2Cl)ccc1O | > 100 µM (inactive) | > 100 µM (inactive) | > 100 µM (inactive) | > 100 µM (inactive) | 75 µM (inactive) | 12.7 µM (inactive) | 39.5 µM (inactive) | 23.5 µM (inactive) | 20 µM (inactive) | 17.3 µM (inactive) | 29.2 µM (inactive) | 18.7 µM (inactive) | > 100 µM (inactive) | > 100 µM (inactive) | > 10 µM (inactive) |  | 34.8 µM (inactive) | > 100 µM (inactive) | 42.5 µM (inactive) | 12.4 µM (inactive)
CCNC(=O)CNC(=O)C(Cc1ccc([N+](=O)[O-])cc1)NC(=O)OC(C)(C)C (centres undefined) (Boc-[ξPhe(4-NO2)]-Gly-NHEt) | > 100 µM (inactive) | > 100 µM (inactive) | > 100 µM (inactive) | > 100 µM (inactive) | > 100 µM (inactive) | > 100 µM (inactive) | > 100 µM (inactive) | > 100 µM (inactive) | > 100 µM (inactive) | > 100 µM (inactive) | > 100 µM (inactive) | > 100 µM (inactive) | > 100 µM (inactive) | > 100 µM (inactive) | > 100 µM (inactive) | > 100 µM (inactive) |  | > 100 µM (inactive) | > 100 µM (inactive) | > 100 µM (inactive)
CN1C(NN)=NS(=O)(=O)c2ccccc21 | > 100 µM (inactive) | > 100 µM (inactive) | > 100 µM (inactive) | > 100 µM (inactive) | > 100 µM (inactive) | > 100 µM (inactive) | > 100 µM (inactive) | > 100 µM (inactive) | > 100 µM (inactive) | > 100 µM (inactive) | > 100 µM (inactive) | > 100 µM (inactive) | > 100 µM (inactive) | > 100 µM (inactive) | > 100 µM (inactive) | > 100 µM (inactive) | > 100 µM (inactive) | > 100 µM (inactive) | > 100 µM (inactive) | 
CCC/C=C/C=C/C1CC(O)C(O)C(=O)C1CO (centres undefined) | > 100 µM (inactive) | > 100 µM (inactive) | > 100 µM (inactive) | > 100 µM (inactive) | > 100 µM (inactive) | 48.2 µM (inactive) |  | > 100 µM (inactive) | > 100 µM (inactive) | > 100 µM (inactive) | > 100 µM (inactive) |  | > 100 µM (inactive) | > 100 µM (inactive) | > 100 µM (inactive) | > 100 µM (inactive) | > 100 µM (inactive) | > 100 µM (inactive) | > 100 µM (inactive) | > 100 µM (inactive)
CN(C)S(=O)(=O)Nc1nnc(S(N)(=O)=O)s1 | > 100 µM (inactive) | > 100 µM (inactive) | > 100 µM (inactive) | > 100 µM (inactive) | > 100 µM (inactive) | > 100 µM (inactive) | > 100 µM (inactive) | > 100 µM (inactive) | > 100 µM (inactive) | > 100 µM (inactive) | > 100 µM (inactive) | > 100 µM (inactive) | > 100 µM (inactive) | > 100 µM (inactive) | > 100 µM (inactive) | > 100 µM (inactive) | > 100 µM (inactive) | > 100 µM (inactive) |  | > 100 µM (inactive)
O=C1NC(N/N=C/c2ccccc2)=N/C1=C\c1ccco1 | 27.7 µM (inactive) | 21.9 µM (inactive) | 23.7 µM (inactive) | 32.9 µM (inactive) | 42.9 µM (inactive) | > 100 µM (inactive) | 19.8 µM (inactive) | 11.3 µM (inactive) | 31.5 µM (inactive) |  | 65.2 µM (inactive) | 37.1 µM (inactive) | 35.5 µM (inactive) | 20.7 µM (inactive) | 32.7 µM (inactive) | 38.5 µM (inactive) |  | 51.8 µM (inactive) | 35.6 µM (inactive) | 47.8 µM (inactive)
